PMC11899342, “Novel Triazeneindole Antibiotics: Synthesis and Hit-to-Lead Optimization” (International Journal of Molecular Sciences, 2025)
≈ marks a conversion by molar mass, not a printed value. Read-outs that look alike come from different tables or passages of the source.

Experiments:
[1] = tested on: MRSA clinical isolates; experiment: MIC by broth microdilution against multidrug-resistant MRSA clinical isolates; format: cell-based, Staphylococcus aureus; conditions: for MIC: Staphylococcus aureus, MRSA, read-out: MIC against 8 MRSA strains
Method: Clinical MRSA isolates with multidrug resistance were obtained from the collection of the Research Institute of Antimicrobial Chemotherapy, Smolensk State Medical Academy.
The MICs were determined using a broth microdilution method according to [42]. Briefly, serial dilutions of the tested compounds in 50 µL of Mueller Hinton broth (BD) were prepared in 96-well microplates. The antibiotics vancomycin and linezolid (Sigma-Aldrich, St. Louis, MO, USA) were used as a positive control. Bacterial suspensions of the tested MRSA strains were prepared in the Mueller Hinton broth (BD) with a concentration 1 × 10^6 CFU/mL, and then 50 µL aliquots were added to the prepared microplates. The final concentrations of the antibiotics in the wells were 1, 0.5, 0.25, and 0.125 mg/L, for the tested compounds, and 2 mg/L for vancomycin and linezolid. Negative control (lack of bacterial cells) and growth control (lack of compound) wells were included in all plates. The microplates were incubated at 37 °C for 18 h. The growth was assessed visually after incubation, and the MIC was assumed as the lowest compound concentration at which a noticeable growth of the microorganisms was inhibited (no visible growth). All experiments were conducted in triplicate.

[2] = tested on: human embryonic fibroblasts (HEFs); experiment: MTT cytotoxicity on human embryonic fibroblasts; format: cell-based; conditions: Homo sapiens, Fibroblast, 24 h, ND = non-toxic in tested concentrations (up to 50 mg/L)
Method: (§1) The primary screening of 22 substances was performed on human embryonic fibroblasts (HEFs). […] The HepG2 cell line was obtained from the American Type Culture Collection (ATCC cat. # HB-8065). The primary HEF cells (normal human embryonic fibroblasts) were derived from human embryonic stem cells. The cells were cultured in DMEM/F12 (1:1) medium containing 10% fetal bovine serum (Invitrogen, Carlsbad, CA, USA) at 37 °C and 5% CO2, according to standard mammalian tissue culture protocols and sterile technique. […] The incubation time with the substance was 24 h for all substances and cell lines. Cell detachment by trypsin, centrifugation, and counting in a hemocytometer were performed 16 h before the addition of the substance. For correct counting of the HepG2 cells, the cell suspension was passed through a syringe needle to get rid of cell aggregates. The cells were placed in the wells of a 96-well plate. The number of cells was selected according to the properties of the cell line and the final optical density in the experiment. Fibroblasts and hepatocytes were used in the amount of 10 thousand cells per well in 100 μL of DMEM/F12 medium supplemented with 10% fetal bovine serum. The substances were added to 100 µL of medium in the wells so that the final concentrations were 50, 25, 12.5, 6.25, 3.125, and 1.62 mg/L. The final well volume was 200 µL. The medium containing fetal bovine serum, without added substances, was used as a negative control. After 24 h, excessive amounts of medium were discarded. A total of 30 µL of MTT solution (5 mg/mL in PBS) was added to each well. After the precipitation of formazan crystals (3 h incubation), they were dissolved using 100 μL of dimethyl sulfoxide. The optical density (OD) was measured at 570 nm using a microplate reader (Eppendorf). For every condition, the cell viabilities were assessed in at least three independent experiments for every cell culture. Cell survival was calculated using the following formula:(OD of treated cells − OD blank)/(OD of control cells − OD blank) × 100%, where OD blank represents the OD values in wells without cells but with the addition of the MTT and DMSO solutions. The results were presented in the form of cytotoxicity curves, and the graphs were also plotted in a Microsoft Excel program; the calculation of the IC50 half-maximal inhibition concentration values was performed in a GraphPad Prism 6.0 (GraphPad Software Inc., San Diego, CA, USA) program, based on the equations of the cytotoxicity curves.

[3] = tested on: HepG2 human liver carcinoma cells; experiment: MTT cytotoxicity (hepatotoxicity) on HepG2; format: cell-based; conditions: Homo sapiens, HepG2, 24 h
Method: as §1

[4] = tested on: MRSA; experiment: Selectivity index (average IC50 on eukaryotic cells / average MIC on MRSA); format: cell-based, Staphylococcus aureus; conditions: average IC50 on eukaryotic cells divided by average MIC on MRSA
Method: The selectivity index was calculated for each compound as the average IC50 on eukaryotic cells divided by the average MIC on MRSA (Table 2).

[5] = Solubility in water by HPLC; format: physicochemical; conditions: water, kinetic from dmso stock
Method: The solubility of the compounds in water was assessed using HPLC analysis. Two 1.0 mg portions of the test compounds were dissolved in 10 μL of dimethyl sulfoxide; 1.0 mL of acetonitrile was added to one sample (standard), and 1.0 mL of water was added to the second sample (tested sample). Both vials were mixed in a shaker for 5 min, then centrifuged at 10,000 rpm for 5 min. The supernatants were collected and analyzed using Agilent 1290 Infinity (Agilent Technologies, Santa Clara, CA, USA) with a YMC-Triart C18 50 × 2.0 mm, 1.9 μm column. The concentration of the test compound in water was determined by comparing the peak areas of the standard (concentration 1.0 mg/mL) and the tested sample.

[6] = target: T1, cytochrome P450 2C8 (Homo sapiens, UniProt P10632); experiment: Inhibition of cytochrome P450 isoform activity in human liver microsomes; format: in vitro ADME; conditions: N/A: no inhibition, tested 0.0046–10 μM
T1 construct: was investigated using human liver microsomes (XenoTech, USA); tissue XenoTech; host or cells: human liver microsomes
T1 sequence (P10632 1-490): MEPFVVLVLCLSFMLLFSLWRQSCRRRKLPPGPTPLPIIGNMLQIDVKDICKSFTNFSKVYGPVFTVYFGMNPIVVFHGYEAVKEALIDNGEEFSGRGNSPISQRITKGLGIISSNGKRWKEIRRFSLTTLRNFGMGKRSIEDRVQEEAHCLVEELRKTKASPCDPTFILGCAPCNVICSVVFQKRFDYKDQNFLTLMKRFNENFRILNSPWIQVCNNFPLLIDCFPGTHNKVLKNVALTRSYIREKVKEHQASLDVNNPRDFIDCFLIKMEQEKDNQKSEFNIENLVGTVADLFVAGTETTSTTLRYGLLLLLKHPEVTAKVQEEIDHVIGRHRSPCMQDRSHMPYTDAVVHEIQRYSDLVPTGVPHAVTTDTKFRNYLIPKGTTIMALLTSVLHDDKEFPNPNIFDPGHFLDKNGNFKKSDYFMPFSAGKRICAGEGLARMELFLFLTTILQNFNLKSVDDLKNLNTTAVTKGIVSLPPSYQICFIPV
Method: The effect of the tested compound on the activity of the main isoforms of human liver cytochrome P450 (1A2, 2C9, 2C19, 2D6, 3A4, 2C8) was investigated using human liver microsomes (XenoTech, USA) and their corresponding substrates: phenacetin, testosterone, tolbutamide, S-mephenytoin, dextromethorphan hydrobromide, and amodiaquine dihydrochloride dihydrate (Sigma-Aldrich, USA).
[…]. The reaction was stopped after 20 min by adding acetonitrile. The resulting metabolites were detected using UPLC–MS/MS. The calculation of the IC50 half-maximal inhibition concentration values was performed in the GraphPad Prism 6.0 (GraphPad Software Inc., USA) program, based on the equations of the experimental curves.

CCOC(=O)c1[nH]c2cc(F)ccc2c1/N=N/N(C)CCc1ccccn1 [BX-SI048, Ethyl (E)-6-fluoro-3-(3-methyl-3-(2-(pyridin-2-yl)ethyl)triaz-1-en-1-yl)-1H-indole-2-carboxylate]
MIC Range Against 8 MRSA Strains ([1]; 8 multidrug-resistant MRSA clinical isolates, tested 0.125-1 mg/L): 0.5 to 1 µg/mL
MIC ([1]; Figure 6, MRSA strain 2): 1 µg/mL (≈ 2.71 µM)
MIC ([1]; Figure 6, MRSA strain 7): 0.5 µg/mL (≈ 1.35 µM)
MIC ([1]; Figure 6, MRSA strain 8): 0.5 µg/mL (≈ 1.35 µM)
MIC ([1]; Figure 6, MRSA strain 9): 1 µg/mL (≈ 2.71 µM)
MIC ([1]; Figure 6, MRSA strain 13): 0.5 µg/mL (≈ 1.35 µM)
MIC ([1]; Figure 6, MRSA strain 21): 0.5 µg/mL (≈ 1.35 µM)
MIC ([1]; Figure 6, MRSA strain 48): 0.5 µg/mL (≈ 1.35 µM)
MIC ([1]; Figure 6, MRSA strain 50): 0.5 µg/mL (≈ 1.35 µM)
IC50 [2]: 13 µg/mL (≈ 35.2 µM)
IC50 [3]: 22 µg/mL (≈ 59.6 µM)
Selectivity Index [4]: 28
solubility at 5 min ([5]; read-out: Solubility in water, mass concentration): 34.9 µg/mL
solubility at 5 min ([5]; read-out: Solubility in water, molar concentration): 90 µM

O=c1c(O)c(-c2ccc(O)c(O)c2)oc2cc(O)cc(O)c12 [Quercetin, quercetin]
IC50 [6]: 2600 nM
